Active and inactive are the calls of the source. The calls are words filed in the database; no cut-off is given here.

One experiment is filed under the species Bos taurus. Nature of the experiment: Inhibition of purified reconstituted bovine brain V-ATPase at 2 uM.
With `O=C(C#Cc1ccccc1)N/C=C/C[C@H]1C[C@@H](O)CC/C=C/Cc2cc(O)ccc2C(=O)O1`, the inhibition result was “inactive”.

Target in the next experiment: not listed separately
As to the kind of experiment: Inhibition of purified reconstituted bovine brain V-ATPase. Set-up: species or system Bos taurus.
With `O=C(C#Cc1ccccc1)N/C=C/C[C@H]1C[C@@H](O)CC/C=C/Cc2cccc([N+](=O)[O-])c2C(=O)O1`, it took 1000 nM to reach half-maximal inhibition (IC50).

For `C[C@H]1C/C=C/Cc2cccc(O)c2C(=O)O[C@@H](C/C=C/NC(=O)C#Cc2ccccc2)C[C@H]1O` [SALIPHENYLHALAMIDE], the IC50 stood at 1 nM. The same measure, in the same setting: to `O=C(C#Cc1ccccc1)N/C=C/C[C@H]1C[C@@H](O)CC/C=C/Cc2cccc(O)c2C(=O)O1` belongs 5 nM; to `O=C(C#Cc1ccccc1)N/C=C/C[C@H]1C[C@@H](O)CC/C=C/Cc2cc(F)ccc2C(=O)O1`, 500 nM; to `O=C(C#Cc1ccccc1)N/C=C/C[C@H]1C[C@@H](O)CC/C=C/Cc2cccc(F)c2C(=O)O1`, 1000 nM.

Turning to `O=C(C#Cc1ccccc1)N/C=C/C[C@H]1C[C@@H](O)CC/C=C/Cc2cc([N+](=O)[O-])ccc2C(=O)O1`, 300 nM corresponded to half-maximal inhibition (IC50). Against the preceding compound, the IC50 is about 3.3-fold lower. On the same count and under the same terms, to `O=C(C#Cc1ccccc1)N/C=C/C[C@H]1C[C@@H](O)CC/C=C/Cc2cccc(O)c2C(=O)N1` belongs 3 nM; to `O=C(C#Cc1ccccc1)N/C=C/C[C@H]1C[C@@H](O)CC/C=C/Cc2cccc(C(F)F)c2C(=O)O1`, 500 nM. The same measure, in the same setting: the value for `Nc1cccc2c1C(=O)O[C@@H](C/C=C/NC(=O)C#Cc1ccccc1)C[C@@H](O)CC/C=C/C2` was 300 nM.

For a further experiment, the system named is HCC4017. Nature of the experiment: Growth inhibition of human HCC4017 cells assessed as reduction in cell viability at 0.1 nM to 10 uM. Type of experiment: functional.
As to `O=C(C#Cc1ccccc1)N/C=C/C[C@H]1C[C@@H](O)CC/C=C/Cc2cccc([N+](=O)[O-])c2C(=O)O1`, the “growth inhibition (GI)” value is “inactive”. Same read-out and setting: the value for `C[C@H]1C/C=C/Cc2cccc(O)c2C(=O)O[C@@H](C/C=C/NC(=O)C#Cc2ccccc2)C[C@H]1O` [SALIPHENYLHALAMIDE] was “Active”; that for `O=C(C#Cc1ccccc1)N/C=C/C[C@H]1C[C@@H](O)CC/C=C/Cc2cccc(O)c2C(=O)O1` was “Active”. Still for that read-out and setting: to `O=C(C#Cc1ccccc1)N/C=C/C[C@H]1C[C@@H](O)CC/C=C/Cc2cc(F)ccc2C(=O)O1` belongs “inactive”. As for `O=C(C#Cc1ccccc1)N/C=C/C[C@H]1C[C@@H](O)CC/C=C/Cc2cccc(F)c2C(=O)O1`, the “growth inhibition (GI)” value was “inactive”. Take `O=C(C#Cc1ccccc1)N/C=C/C[C@H]1C[C@@H](O)CC/C=C/Cc2cc([N+](=O)[O-])ccc2C(=O)O1`: the “growth inhibition (GI)” value was “inactive”. The same measure, in the same setting: to `O=C(C#Cc1ccccc1)N/C=C/C[C@H]1C[C@@H](O)CC/C=C/Cc2cc(O)ccc2C(=O)O1` belongs “inactive”; to `O=C(C#Cc1ccccc1)N/C=C/C[C@H]1C[C@@H](O)CC/C=C/Cc2cccc(O)c2C(=O)N1`, “Active”; to `O=C(C#Cc1ccccc1)N/C=C/C[C@H]1C[C@@H](O)CC/C=C/Cc2cccc(C(F)F)c2C(=O)O1`, “inactive”. Still for that read-out and setting: to `Nc1cccc2c1C(=O)O[C@@H](C/C=C/NC(=O)C#Cc1ccccc1)C[C@@H](O)CC/C=C/C2` belongs “inactive”.

Target in the next experiment: not listed separately
As to the kind of experiment: Inhibition of V-ATPase (unknown origin). Further details: species or system Homo sapiens.
Compound `CC/C=C\C=C/C(=O)N/C=C/C[C@H]1C[C@@H](O)[C@@H](C)C/C=C/Cc2cccc(O)c2C(=O)O1` [SALICYLIHALAMIDE A] registered an IC50 of under 1 nM.
